Assay results as given in patent US11673910B2, “Macrolides with modified desosamine sugars and uses thereof” (Zikani Therapeutics, Inc., priority 2017, dated 2023).
≈ marks a conversion by molar mass, not a printed value.

What was measured:
Format in all cases: cell-based
E. coli strain MP-4 = test: Broth dilution MIC determination (CLSI) against E. coli strain MP-4; settings: Escherichia coli, MP4
Experimental: (§1) Minimum inhibitory concentrations (MICs) for macrolides described herein were determined for E. coli strain MP-4, K. pneumoniae strain MP-548, P. aeruginosa strain MP-3, A. baumannii strain MP-15, and S. aureus strain MP-12 using similar test procedures as published in US Pat. Pub. No. 2017/0305953. MIC data is represented as “+++” for values less than or equal to 4 mg/L, “++” for values of greater than or equal to 8 mg/L and less than 32 mg/L, and “+” for values of 32 mg/L or greater. ND indicates no data for a particular compound. CLSI standard procedures for broth dilution MIC determination were used.

[1] = tested on: K. pneumoniae strain MP-548; test: Broth dilution MIC determination (CLSI) against K. pneumoniae strain MP-548; settings: Klebsiella pneumoniae, MP548
Experimental: as §1

[2] = tested on: P. aeruginosa strain MP-3; test: Broth dilution MIC determination (CLSI) against P. aeruginosa strain MP-3; settings: Pseudomonas aeruginosa, MP3
Experimental: as §1

S. aureus strain MP-12 = test: Broth dilution MIC determination (CLSI) against S. aureus strain MP-12; settings: for MIC: Staphylococcus aureus, MP12, strain MP-12; for MIC against S. aureus (MP-12): strain MP-12
Experimental: as §1

[3] = tested on: A. baumannii strain MP-15; test: Broth dilution MIC determination (CLSI) against A. baumannii strain MP-15; settings: Acinetobacter baumannii, MP15
Experimental: as §1

Molecule | MIC (E. coli strain MP-4) [µg/mL] | MIC [1] [µg/mL] | MIC [2] [µg/mL] | MIC (S. aureus strain MP-12) [µg/mL] | MIC [3] [µg/mL] | MIC against S. aureus (MP-12) (S. aureus strain MP-12)
CC[C@H]1OC(=O)C(C)C(=O)[C@H](C)[C@@H](OC2OC(CN3CCCCC34CC4)CC(N(C)C)C2O)[C@](C)(OC)C[C@@H](C)CN[C@H](C)[C@H]2NC(=O)O[C@@]21C (stereo partly shown) [Compound 135, 3-Descladinosyl-3-oxo-6-O-methyl-N9a-desmethyl-11,12-dideoxy-12,11-(oxycarbonylimino)-6′-(4″-azaspiro[2″.5″]octanyl)amino Azithromycin] | ≤ 4 | 8 to 32 (≈ 11.1 to 44.3 µM) | ≥ 32 | 8 to 32 (≈ 11.1 to 44.3 µM) | ≤ 4 | 
CC[C@H]1OC(=O)C(C)C(=O)[C@H](C)[C@@H](O[C@@H]2O[C@H]([C@H](C)N3CCCCC3)CC(N(C)C)[C@H]2O)[C@](C)(OC)C[C@@H](C)CN[C@H](C)[C@H]2NC(=O)O[C@@]21C (stereo partly drawn) [Compound 179, 3-Descladinosyl-3-oxo-6-O-methyl-N9a-desmethyl-11,12-dideoxy-12,11-(oxycarbonylimino)-6′-((S)-1-(piperidin-1-yl)ethyl) Azithromycin] | ≤ 4 | 8 to 32 (≈ 11.3 to 45 µM) | ≥ 32 | ≥ 32 | ≥ 32 | 
CC[C@H]1OC(=O)C(C)C(=O)[C@H](C)[C@@H](O[C@@H]2OC(CNCc3nccn3C)CC(N(C)C)C2O)[C@](C)(OC)C[C@@H](C)CN[C@H](C)[C@H]2NC(=O)O[C@@]21C (stereo partly shown) [Compound 25] | ≥ 32 | ≥ 32 | ≥ 32 | ≥ 32 | ≥ 32 | 
CO[C@]1(C)C[C@@H](C)CN[C@H](C)[C@H]2NC(=O)O[C@]2(C)[C@@H](C)OC(=O)C(C)C(=O)[C@H](C)[C@H]1OC1OC(CNCC2CC2)CC(N(C)C)C1O (stereo partly shown) [Compound 148, 3-Descladinosyl-3-oxo-6-O-methyl-N9a-desmethyl-11,12-dideoxy-12,11-(oxycarbonylimino)-6′-cyclopropylmethylamino-13-methyl Azithromycin] | ≥ 32 | ≥ 32 | ≥ 32 | ≥ 32 | ≥ 32 | 
CC[C@H]1OC(=O)[C@@]2(C)CCOC(C)(C[C@@H](C)CN[C@H](C)[C@H]3NC(=O)O[C@@]31C)[C@H](O[C@@H]1OC(CNC3CC3)CC(N(C)C)C1O)[C@@H](C)C2=O (stereo partly shown) [Compound 80] | ≤ 4 | ≤ 4 | 8 to 32 (≈ 11.7 to 47 µM) | ≤ 4 | 8 to 32 (≈ 11.7 to 47 µM) | 
CC[C@H]1OC(=O)C(C)C(=O)[C@H](C)[C@@H](OC2OC(CNCC3CC3)CC(N(C)C)C2O)[C@](C)(OC)C[C@@H](C)CN[C@H](C)[C@H]2NC(=O)O[C@@]21C (stereo partly shown) [Compound 119, 3-Descladinosyl-3-oxo-6-O-methyl-N9a-desmethyl-11,12-dideoxy-12,11-(oxycarbonylimino)-6′-(cyclopropylmethylamino) Azithromycin] | ≤ 4 | 8 to 32 (≈ 11.7 to 46.9 µM) |  | ≥ 32 | ≥ 32 | 
CC[C@H]1OC(=O)C(C)C(=O)[C@H](C)[C@@H](OC2OC(CN3CCC(F)(F)CC3)CC(N(C)C)C2O)[C@](C)(OC)C[C@@H](C)CN[C@H](C)[C@H]2NC(=O)O[C@@]21C (stereo partly shown) [Compound 144, 3-Descladinosyl-3-oxo-6-O-methyl-N9a-desmethyl-11,12-dideoxy-12,11-(oxycarbonylimino)-6′-(4″,4″-difluoropiperidin-1″-yl) Azithromycin] | ≤ 4 | 8 to 32 (≈ 10.9 to 43.7 µM) | ≥ 32 | 8 to 32 (≈ 10.9 to 43.7 µM) | 8 to 32 (≈ 10.9 to 43.7 µM) | 
CC[C@H]1OC(=O)C(C)C(=O)[C@H](C)[C@@H](O[C@@H]2OC(CNCc3ccc(Cl)cc3)CC(N(C)C)C2O)[C@](C)(OC)C[C@@H](C)CN[C@H](C)[C@H]2NC(=O)O[C@@]21C (stereo partly shown) [Compound 36] | ≤ 4 | ≥ 32 | ≥ 32 | ≥ 32 | ≥ 32 | 
CO[C@]1(C)C[C@@H](C)CN[C@H](C)[C@H]2NC(=O)O[C@]2(C)[C@@H](C)OC(=O)C(C)C(=O)[C@H](C)[C@H]1OC1OC(CNC2CCC2)CC(N(C)C)C1O (stereo partly shown) [Compound 147, 3-Descladinosyl-3-oxo-6-O-methyl-N9a-desmethyl-11,12-dideoxy-12,11-(oxycarbonylimino)-6′-cyclobutylamino-13-methyl Azithromycin] | 8 to 32 (≈ 12 to 47.8 µM) | ≥ 32 | ≥ 32 | ≥ 32 | ≥ 32 | 
CC[C@H]1OC(=O)C(C)C(=O)[C@H](C)[C@@H](OC2OC(CN3CCCC3)CC(N(C)C)C2O)[C@](C)(OC)C[C@@H](C)CN[C@H](C)[C@H]2NC(=O)O[C@@]21C (stereo partly shown) [Compound 122, 3-Descladinosyl-3-oxo-6-O-methyl-N9a-desmethyl-11,12-dideoxy-12,11-(oxycarbonylimino)-6′-(1-pyrrolodinyl) Azithromycin] | ≤ 4 | 8 to 32 (≈ 11.7 to 46.9 µM) | ≥ 32 | ≥ 32 | ≥ 32 | 
CC[C@@H]1CC(N(C)C)[C@@H](O)[C@H](O[C@@H]2[C@@H](C)C(=O)C(C)C(=O)O[C@H](CC)[C@@]3(C)OC(=O)N[C@@H]3[C@@H](C)NC[C@H](C)C[C@@]2(C)OC)O1 (stereo partly shown) [Compound 182, 3-Descladinosyl-3-oxo-6-O-methyl-N9a-desmethyl-11,12-dideoxy-12,11-(oxycarbonylimino)-5′-desmethyl-5′-ethyl Azithromycin] | ≤ 4 | 8 to 32 (≈ 12.7 to 51 µM) | ≥ 32 | 8 to 32 (≈ 12.7 to 51 µM) | 8 to 32 (≈ 12.7 to 51 µM) | 
CC[C@H]1OC(=O)C(C)C(=O)[C@H](C)[C@@H](OC2OC(CNCC(N)=O)CC(N(C)C)C2O)[C@](C)(OC)C[C@@H](C)CN[C@H](C)[C@H]2NC(=O)O[C@@]21C (stereo partly shown) [Compound 116, 3-Descladinosyl-3-oxo-6-O-methyl-N9a-desmethyl-11,12-dideoxy-12,11-(oxycarbonylimino)-6′-(N-acetamidylamino) Azithromycin] | ≤ 4 | ≥ 32 | ≥ 32 | ≥ 32 | ≥ 32 | 
CCNC[C@@H]1CC(N(C)C)[C@@H](O)[C@H](O[C@@H]2[C@@H](C)C(=O)C(C)C(=O)O[C@H](CC)[C@@]3(C)OC(=O)N[C@@H]3[C@@H](C)N(C)C[C@H](C)C[C@@]2(C)OC)O1 (stereo partly shown) [Compound 165, 3-Descladinosyl-3-oxo-6-O-methyl-11,12-dideoxy-12,11-(oxycarbonylimino)-6′-ethylamino Azithromycin] | ≤ 4 | 8 to 32 (≈ 11.9 to 47.7 µM) | ≥ 32 | ≥ 32 | ≥ 32 | 
CC[C@H]1OC(=O)C(C)C(=O)[C@H](C)[C@@H](O[C@@H]2OC(CNCc3ccc(S(C)(=O)=O)cc3)CC(N(C)C)C2O)[C@](C)(OC)C[C@@H](C)CN[C@H](C)[C@H]2NC(=O)O[C@@]21C (stereo partly shown) [Compound 45] | ≥ 32 | ≥ 32 | ≥ 32 | ≥ 32 | ≥ 32 | 
CC[C@H]1OC(=O)C(C)C(=O)[C@H](C)[C@@H](OC2OC(CN3CC(O)C3)CC(N(C)C)C2O)[C@](C)(OC)C[C@@H](C)CN[C@H](C)[C@H]2NC(=O)O[C@@]21C (stereo partly shown) [Compound 128, 3-Descladinosyl-3-oxo-6-O-methyl-N9a-desmethyl-11,12-dideoxy-12,11-(oxycarbonylimino)-6′-(3-hydroxy-1-azetidinyl) Azithromycin] | ≥ 32 | ≥ 32 | ≥ 32 | ≥ 32 | ≥ 32 | 
CC[C@H]1OC(=O)C(C)C(=O)[C@H](C)[C@@H](O[C@@H]2OC(CNCc3ccn(C)n3)CC(N(C)C)C2O)[C@](C)(OC)C[C@@H](C)CN[C@H](C)[C@H]2NC(=O)O[C@@]21C (stereo partly shown) [Compound 21] | ≥ 32 | ≥ 32 | ≥ 32 | ≥ 32 | ≥ 32 | 
CCNCC1CC(N(C)C)C(O)C(O[C@@H]2[C@@H](C)C(=O)C(C)C(=O)O[C@H](CC)[C@@]3(C)OC(=O)N[C@@H]3[C@@H](C)NC[C@H](C)C[C@@]2(C)OC)O1 (stereo partly shown) [Compound 108, 3-Descladinosyl-3-oxo-6-O-methyl-N9a-desmethyl-11,12-dideoxy-12,11-(oxycarbonylimino)-6′-ethylamino azithromycin] | 8 to 32 (≈ 12.2 to 48.7 µM) | ≥ 32 | ≥ 32 | ≥ 32 | ≥ 32 | 
CCC1CO[C@@]2(C)C[C@@H](C)CN[C@H](C)[C@H]3NC(=O)O[C@]3(C)[C@@H](CC)OC(=O)[C@@]1(C)C(=O)[C@H](C)[C@H]2OC1OC(C)CC(N(C)C)C1O (stereo partly shown) [Compound 225] |  |  |  | ≥ 32 |  | 
3-Descladinosyl-3-oxo-6-O-methyl-N9a-desmethyl-11,12-dideoxy-12,11-(oxycarbonylimino)-6,11-(Z-2-butenyl)-6′-cyclopropylamino azithromycin [Compound 230] |  |  |  |  |  | + (values of 32 mg/L or greater)
CC[C@H]1OC(=O)[C@]2(C)CCOC(C)(C[C@@H](C)CN[C@H](C)[C@H]3NC(=O)O[C@@]31C)[C@H](O[C@@H]1O[C@H](CNC34CC(C3)C4)C[C@H](N(C)C)[C@H]1O)[C@@H](C)C2=O [Compound 205] |  |  |  |  |  | + (values of 32 mg/L or greater)
CC[C@H]1OC(=O)[C@]2(C)CCO[C@](C)(C[C@@H](C)CN[C@H](C)[C@H]3NC(=O)O[C@@]31C)[C@H](O[C@@H]1O[C@H](CNC3CC3)C[C@H](N(C)C)[C@H]1O)[C@@H](C)C2=O [Compound 203] |  |  | ≥ 32 | ≥ 32 |  | 
CC[C@H]1OC(=O)[C@@]2(C)CCOC(C)(C[C@@H](C)CN(CC(C)C)[C@H](C)[C@H]3NC(=O)O[C@@]31C)[C@H](O[C@@H]1OC(C)CC(N(C)C)C1O)[C@@H](C)C2=O (stereo partly shown) [Compound 222] |  |  |  | 8 to 32 (≈ 11.7 to 46.9 µM) |  | 
CC[C@H]1OC(=O)[C@]2(C)CCOC(C)(C[C@@H](C)CN[C@H](C)[C@H]3NC(=O)O[C@@]31C)[C@H](O[C@@H]1O[C@H](CNCC(F)(F)F)C[C@H](N(C)C)[C@H]1O)[C@@H](C)C2=O [Compound 207] |  |  |  | ≥ 32 |  | 
